From patent US6172205A, “Synthetic process toward total synthesis of eleutherobin and its analogues and uses thereof” (The Trustees of Columbia in the City of New York, priority 1998, dated 2001)
pIC50: −log10 of the molar value. “And” between values parts separate entries of the source, which are not always exact repeats. Equal entries are not always repeated. “Also recorded” adds a separate entry of the source. Where two headings read alike, the source gives them in different places.

Assays:
[1] = tested on: SKVBL (MDR variant of SKOV3); experiment: Cytotoxicity by counting cells after 72 h, MDR variant cells; assay type: cell-based, human; settings: for pIC50: Homo sapiens, SK-OV-3, Ovarian Carcinoma SKOV3, Resistant (SKVBL), 72 h, mean of at least three independent experiments; for cross-resistance in SKVBL (in words): MDR1 expressing cells, high P-glycoprotein; for fold resistance relative to the parental cell line: SKVBL vs SKOV3
Method: (§1) Human non-small cell lung carcinoma cells, A549, were maintained in RPMI 1640 containing 10% fetal bovine serum and 1% penicillin-streptomycin (Gibco Laboratories, Grand Island N.Y.) at 37° C. in 7% CO2. The Taxol-resistant cell line A549-T12 was selected for resistance to Taxol and maintained in a final concentration of 12 nM drug (21). Human ovarian carcinoma cells SKOV3 and the MDR variant SKVBL (obtained from Dr. V. Ling) were maintained in α-mem plus ribonucleotides, deoxynucleotides, 15% fetal bovine serum and 1% penicillin-streptomycin (Gibco Laboratories) at 37° C. in 5% CO2. SKVBL cells were maintained in […] vinblastine (Sigma Chemical Co.).
(§2) Taxol-resistant and sensitive cell lines were seeded into 12-well plates at a density of 5×10^4 cells per well and allowed a period of 12 h for attachment prior to treatment. Cells were exposed to 10-fold serial dilutions of each compound (10^-10 to 10^-6 M) for 72 h. Cells were then trypsinized and counted (Coulter counter model ZF0031, Coulter Corp., Miami, Fla.). The IC50 was determined by plotting cell number against log of the drug concentration and this was used to determine the concentration of compound resulting in 50% growth inhibition compared to untreated cells. Each cell line was assayed in a minimum of 3 independent experiments with each compound and the results expressed as the mean IC50.
(§3) The cytotoxic efficacy of eleutherobin and its derivatives (FIG. 6) was evaluated in two drug sensitive human cancer cell lines and their Taxol-resistant counterparts. The results are summarized in Table I in order of decreasing potency. […] The Taxol-resistant cell line SKVBL overexpresses high levels of P-glycoprotein (22). […] The only difference between the two agents is the enantiomeric relationship in the carbohydrate (2'-acetylarabinose) sector (FIG. 6). […] This cell line expressed high levels of MDR1 resulting in Taxol-resistance equal or greater than 1666 -fold compared to the Taxol-sensitive SKOV3 cell line.
(§4) ^a Cytotoxicity determined by counting cells after 72 h drug exposure.

[2] = tested on: A549-T12 (Taxol-resistant A549); experiment: Cytotoxicity by counting cells after 72 h, Taxol-resistant cells; assay type: cell-based, human; settings: for fold resistance relative to the parental cell line: A549-T12 vs A549, 4320 min; for pIC50: Homo sapiens, Lung Carcinoma A549, Resistant (A549-T12), 72 h, mean of at least three independent experiments; for cross-resistance in A549-T12 (in words): Taxol-resistant, not expressing P-glycoprotein
Method: as §1, §2, §3, §4

[3] = tested on: P-glycoprotein; experiment: P-glycoprotein substrate behaviour inferred from resistance of SKVBL cells; assay type: cell-based, human
Method: as §1, §2, §3

[4] = tested on: Human ovarian carcinoma cells SKOV3; experiment: Cytotoxicity by counting cells after 72 h, Taxol-sensitive cells; assay type: cell-based
Method: as §1, §2, §4

[5] = tested on: Human non-small cell lung carcinoma cells, A549; experiment: as above; assay type: cell-based; settings: for pIC50: Homo sapiens
Method: Taxol-resistant and sensitive cell lines were seeded into 12-well plates at a density of 5×10^4 cells per well and allowed a period of 12 h for attachment prior to treatment. […] Cells were then trypsinized and counted (Coulter counter model ZF0031, Coulter Corp., Miami, Fla.).

[6] = Overall biological activity, all parameters tested
Method: as §2
(§5) The ability of each compound to polymerize tubulin was evaluated by recording the change in turbidity of microtubule protein at 350 nm for 80 min in a spectrophotometer (UVIKON, Research Instruments Int., SD, Calif.). One mg of purified microtubule protein was diluted in assembly buffer containing 0.1 M MES, 1 mM EGTA, 0.5 mM MgCl2 and 3 M glycerol, pH 6.6. All compounds were evaluated at a concentration of 10 μM at 37° C. GTP was used at a final concentration of 1 mM. Microtubule stability was assessed by the addition of 10 mM Ca^++. changes from t=0-10 min were used to calculate initial slopes from the linear portion of each curve. These values were used to calculate the activity of each compound (relative to the activity of Taxol which was assigned a value of 100%).
(§6) NIH 3T3 cells were grown to subconfluency on glass converslips in 35 mm plastic petri dishes. Cells were exposed to 2 μM of Taxol and each of the experimental compounds for 5.5 h at 37° C., rinsed twice in PBS and extracted with 0.5% Triton-X-100 in microtubule stabilizing buffer (PEM) (100 mM PIPES, 2 mM EGTA and 2 mM MgCl2, pH 6.8) for 4 min. Following a wash in PEM, the cells were fixed for 40 min at room temperature in 3% formaldehyde in PEM followed by incubation in 0.1 M glycine in PBS for 10 min and washing (four times) in PEM containing 5 μM EGTA. Following blocking in 20% normal goat serum (NGS) for 30 min at room temperature, cells were incubated for 1 h at 37° C. with a 1:100 dilution of β-tubulin mAb diluted in 10% NGS, washed twice in 1% BSA, once in PBS and three times in 1% BSA. Cells were then incubated in a 1:200 dilution of the secondary fluorophore antibody, IndocarbocyanineCY3 (Jackson Immunoresearch Laboratories Inc., Pa.) in 20% NGS for 20 min at room temperature. Finally cells were washed three times in 1% BSA and the dried slides mounted in 30% glycerol in PBS containing […]-phenylene diamine (1 mg/ml). Fixed slides were examined using a Zeiss Axioskop microscope.

[7] = tested on: microtubule protein; experiment: Stability of microtubules against Ca++-induced depolymerization; assay type: biochemical, calf; settings: 10 mM CaCl2
Method: (§7) Eleutherobin and its derivatives were synthesized as described (18,19). Taxol was obtained from the Drug Development Branch, National Cancer Institute (Bethesda, Md.). All compounds were dissolved in dimethyl sulfoxide (Sigma Chemical Co., St. Louis, Mo.) at stock concentrations of 5 mM and stored at -20° C. All control samples contained an equal volume of DMSO. GTP was obtained from Sigma Chemical Co. And dissolved in sterile distilled water at a concentration of 10 mM and stored at -20° C. Microtubule protein was purified from calf brains by two cycles of temperature-dependent assembly and disassembly (20) and stored in liquid nitrogen prior to use. The anti-mouse β-tubulin monoclonal antibody T-4026 was obtained from Sigma Chemical Co.
as §5
The ability of each compound to polymerize and/or stabilize microtubules was assessed (FIG. 7). To investigate whether eleutherobin and its derivatives shared the microtubule stabilizing properties of Taxol, 10 mM CaCl2 was added to each sample after maximum microtubule polymerization occurred, and the effects on turbidity recorded spectrophotometrically. A positive control was included in which 1 mM GTP was used to confirm the ability of GTP-stabilized microtubules to undergo Ca^++ induced depolymerization.
The ability of this compound to stabilize microtubules formed in the presence of GTP was examined. After a period of 15 min, 10 mM Ca^++ was added and the change in turbidity recorded.

[8] = tested on: tubulin / microtubule protein; experiment: Tubulin polymerization by turbidity at 350 nm in the absence of GTP; assay type: biochemical, calf; settings: 10 μM; for tubulin polymerization (in words): 37 °C, absence of GTP
Method: as §7
as §5, with “GTP was used at a final concentration of 1 mM.” left out
The polymerization activity of these compounds was also assessed by determining the slope of the linear portion of each curve at A350 nm (t=0-10 min), and expressing this relative to Taxol (which was assigned a value of 100% (FIG. 8). The order of activity of eleutherobin and derivatives using this method, corroborates the results obtained from cytotoxicity studies.

[9] = tested on: cellular microtubules, NIH 3T3 cells; experiment: Microtubule bundle formation by immunofluorescence; assay type: cell-based; settings: 2 μM, 5.5 h; for microtubule bundle formation (in words): 37 °C
Method: FIG. 9 immunofluorescence images NIH3T3 cells labeled with β-tubulin antibody following exposure to different drugs. A)DMSO; B)2 μM Taxol; C)2 μM eleutherobin; D)2 μM neo-eleutherobin; E)2 μM SKBII.294; F)2 μM SKBIII.13.
Illustrates the effects of eleutherobin and its derivatives on the morphology of cellular microtubules following exposure of cells to 2 μM of each compound for 5.5 h at 37° C. […] The number of micotic asters correlated with the extent of microtubule bundling in interphase cells.
as §6

[10] = Solubility compared to eleutherobin; assay type: physicochemical
[11] = sensitive cell lines (A549, SKOV3)

SMILES | pIC50 [1] | cross-resistance in SKVBL (in words) [1] | fold resistance relative to the parental cell line [2] | pIC50 [2] | cross-resistance in A549-T12 (in words) [2] | P-glycoprotein substrate (in words) [3] | pIC50 ([4]; SK-OV-3, 72 h) | pIC50 ([5]; A549, 72 h) | biological activity (in words) [6] | stabilization against Ca++-induced depolymerization (in words) [7] | microtubule polymerization activity relative to eleutherobin [8] [%] | microtubule bundle formation (in words) [9] | fold resistance relative to the parental cell line [1] [fold] | cytotoxicity (in words) [5, 11] | also measured
CO[C@]12C=C[C@](C)(O1)[C@@H](OC(=O)/C=C/c1cn(C)cn1)C[C@H]1C(C)=CC[C@H](C(C)C)[C@H]1C=C2CO[C@H]1OC[C@H](O)[C@H](O)[C@H]1OC(C)=O [Neo-Eleutherobin] | < 6.00 | exhibited cross-resistance in an MDR1 expressing cell line; also recorded: demonstrated cross-resistance | 1.2 fold | 6.84 | neither eleutherobin nor neo-eleutherobin displayed cross-resistance; also recorded: neither of these compounds showed cross-resistance | excellent substrates for P-glycoprotein | 6.87 | 6.90 | less active than eleutherobin in all of the parameters examined | the microtubules formed also resisted Ca^++ -induced depolymerization | 69 | the extent of bundling was reduced |  |  | fold less active / less cytotoxic than eleutherobin [5, 11]: 20 fold and 14-20 fold; multiple asters in mitotic cells ([9]; data not shown): also seen in eleutherobin and neo-eleutherobin-treated cells
CO[C@]12C=C[C@@H]3[C@@H](C(C)C)CC=C(C)[C@@H]3C[C@H](OC(=O)/C=C/c3cn(C)cn3)[C@](C)(C=C1)O2 [SKBII.296] | 5.87 | no cross resistance to SKVBL cells | 10 fold | 5.40 | considerable cross-resistance | considerably less attractive for P-glycoprotein compared to eleutherobin and neo-eleutherobin | 5.79 | 6.40 |  |  | 54 | reduced bundle formation in cultured cells; also recorded: induced less bundle formation than neo-eleutherobin | 0.8 | less cytotoxic than either eleutherobin or neo-eleutherobin | solubility (in words) [10]: reduced solubility compared to eleutherobin
CO[C@]12C=C[C@](C)(O1)[C@@H](O)C[C@H]1C(C)=CC[C@H](C(C)C)[C@H]1C=C2CO[C@@H]1OC[C@@H](O)[C@@H](O)[C@@H]1O [SKBIII.13] |  |  |  |  |  |  |  |  | basically inactive by all parameters tested | unable to stabilize GTP-polymerized microtubules against Ca^++ induced depolymerization |  | a fine microtubule network without bundle formation |  | its cytotoxicity is greatly reduced | pIC50 ([4]; SK-OV-3, Ovarian Carcinoma SKOV3, Sensitive, 72 h, mean of at least three independent experiments, read-out: IC50): < 5.30; pIC50 ([5]; Lung Carcinoma A549, Sensitive, 72 h, mean of at least three independent experiments, read-out: IC50): 5.38; biological activity (in words) ([6]; listed as SKBII.13): biologically inactive; tubulin polymerization (in words) [8]: inactive in tubulin polymerization assays; tubulin polymerization (in words) ([8]; listed as SKBII.13): forfeited the ability to polymerize microtubules
CC(=O)O[C@H]1C(=O)[C@@]2(C)[C@H]([C@H](OC(=O)c3ccccc3)[C@]3(O)C[C@H](OC(=O)[C@H](O)[C@@H](NC(=O)c4ccccc4)c4ccccc4)C(C)=C1C3(C)C)[C@]1(OC(C)=O)CO[C@@H]1C[C@@H]2O [Taxol, reference compound] | < 5.30 |  | 7 fold and 7.1 fold | 7.85 |  | excellent substrates for P-glycoprotein | 8.52 | 8.70 |  | stabilized microtubules against Ca^++ -induced depolymerization |  | identical to that seen in Taxol-treated cells | ≥ 1666 |  | 
